Laboratory results reported in US9307764B2, “Pesticidal diaryl—heterocyclyl derivatives” (BAYER INTELLECTUAL PROPERTY GMBH, priority 2011, dated 2016).

Key:
Format in all cases: in vivo
[1] = system: Aulacophora femoralis; experiment: Biological Test Example 2: Test on Aulacophora femoralis (cucumber leaf immersion); details: 100 ppm effective component concentration, 2nd-instar larvae, seven days later, 25° C.
Protocol: (§1) Unless other methods are mentioned specifically, the sample solution preparation was prepared as follows.
(§2) Solvent: 3 parts by weight of dimethyl formamide
(§3) Emulsifier: 1 part by weight of polyoxyethylene alkyl phenyl ether
(§4) To prepare a suitable concoction including the active compound, 1 part by weight of the active compound was mixed with the above amount of the solvent containing the above amount of the emulsifier, and the resulting mixture was diluted with water to predetermined concentrations.
Leaves of cucumbers were immersed in the water-diluted solution containing the active compound at the predetermined concentration which was prepared above and, after the solution was air-dried, the resultant leaves were put onto sterilized black soil in a plastic cup, into which five of the 2nd-instar larvae of Aulacophora femoralis were then released. The cup was covered with a lid and maintained in a temperature controlled room at 25° C. having humidity of 50 to 60%. Seven days later, the number of dead larvae was counted to calculate the pesticidal ratio. 100% pesticidal ratio means death of all the larvae, while 0% pesticidal ratio means no dead larvae.

[2] = system: Spodoptera litura; experiment: Biological Test Example 3: Test on larvae of Spodoptera litura (method using artificial feeds); details: 100 ppm effective component concentration, 3rd-instar larvae, after 7 days, 25° C.
Protocol: as §1, §2, §3, §4
Powdery artificial feeds (trade name: SILK MATE, manufactured by Nihon Nosan Kogyo, Japan, 2.3 g) were added to a plastic cup (diameter: 7.5 cm, height: 4 cm) to achieve a certain thickness. Water-diluted liquid (5 mL) of the active compound prepared above having predetermined concentration was evenly poured thereto and allowed to stand until the feeds are solidified. Five of the 3rd-instar larvae of Spodoptera litura were released in each cup, and covered with a lid. The cups were put in a temperature controlled room at 25° C. having humidity of 50 to 60%, and the number of dead larvae after 7 days was determined to calculate the pesticidal ratio. 100% pesticidal ratio means death of all the larvae, while 0% pesticidal ratio means no dead larvae.

[3] = system: Tetranychus urticae; experiment: Biological Test Example 1: Test on Tetranychus urticae (spray on Egyptian bean leaves); details: 100 ppm effective component concentration, adult mites, seven days later
Protocol: as §1, §2, §3, §4
50 to 100 of adult Tetranychus urticae were inoculated to leaves at 2-leaf stage of Egyptian bean planted in pots of 6 cm in diameter, to which, 1 day later, the above prepared water diluted solution of the active compound at the predetermined concentration was sufficiently sprayed with a spray gun. After the compounds were sprayed, the pots were left in a greenhouse and the acaricidal ratio was calculated seven days later. 100% acaricidal ratio means death of all the mites, while 0% acaricidal ratio means none of the mites were dead.

SMILES | pesticidal ratio [1] [%] | pesticidal ratio [2] [%] | acaricidal ratio [3] [%]
CCC(=O)NCc1ccc(N2CC(c3cc(Cl)c(Cl)c(Cl)c3)(C(F)(F)F)OS2=O)cc1C(F)(F)F (centres unmarked) [3-17, N-{4-[2-oxide-5-(3,4,5-trichlorophenyl)-5-(trifluoromethyl)-1,2,3-oxathiazolin-3-yl]-2-(trifluoromethyl)benzyl}propane amide] | 100 | 100 | –
CCC(=O)NCc1ccc(N2COC(c3cc(Cl)c(Cl)c(Cl)c3)(C(F)(F)F)C2)cc1C(F)(F)F (centres unmarked) [Compound No. 1-17, N-{4-[5-(3,4,5-trichlorophenyl)-5-(trifluoromethyl)-1,3-oxazolidin-3-yl]-2-(trifluoromethyl)benzyl}propane amide] | 100 | 100 | 100
CCC(=O)NCc1ccc(N2CC(c3cc(Cl)c(Cl)c(Cl)c3)(C(F)(F)F)OS2(=O)=O)cc1C(F)(F)F (centres unmarked) [5-17, N-{4-[2,2-dioxide-5-(3,4,5-trichlorophenyl)-5-(trifluoromethyl)-1,2,3-oxathiazolin-3-yl]-2-(trifluoromethyl)benzyl}propane amide] | 100 | 100 | 100
